Measurements taken from ChEMBL document CHEMBL1614629, “Extrapolation of human pharmacokinetic parameters from rat, dog, and monkey data: Molecular properties associated with extrapolative success or failure” (J Pharm Sci, 2005).

Tests used:
[1] = Clearance in human after iv administration; type: ADME, organism-based; details: in vivo
[2] = Clearance in rat after iv administration; type: ADME, organism-based; details: in vivo
[3] = Clearance in dog after iv administration; type: ADME, organism-based, Canis lupus familiaris; details: in vivo
[4] = Volume of distribution at steady state in human after iv administration; type: ADME, organism-based; details: in vivo, read-out: Vdss
[5] = Clearance in monkey after iv administration; type: ADME, organism-based; details: macaca, in vivo
[6] = Volume of distribution at steady state in rat after iv administration; type: ADME, organism-based; details: in vivo
[7] = Volume of distribution at steady state in monkey after iv administration; type: ADME, organism-based; details: macaca, in vivo, read-out: Vdss
[8] = Volume of distribution at steady state in dog after iv administration; type: ADME, organism-based, Canis lupus familiaris; details: in vivo, read-out: Vdss

| Compound | clearance [1] | clearance [2] | clearance [3] | Vd [4] | clearance [5] | Vdss [6] | Vd [7] | Vd [8] |
| --- | --- | --- | --- | --- | --- | --- | --- | --- |
| Cc1cccc(C)c1NC(=O)NCCCNC(C)C | 7.2 mL/min/kg | 82 mL/min/kg | 13 mL/min/kg | 1.4 L/kg | 32 mL/min/kg | 3.2 L/kg | 3.8 L/kg | 1.2 L/kg |
| CCCCCNC(=O)c1coc([C@H]2[C@@H](Cc3ccccc3CCC(=O)O)[C@@H]3CC[C@H]2O3)n1 [IFETROBAN] | 6.4 mL/min/kg | 88 mL/min/kg | 65 mL/min/kg | 4.4 L/kg | 19 mL/min/kg | 2.8 L/kg | 5.5 L/kg | 11 L/kg |
| CO/N=C(\C(=O)N[C@@H]1C(=O)N2C(C(=O)O)=C(CSc3nc(=O)c(=O)[nH]n3C)CS[C@H]12)c1csc(N)n1 [CEFTRIAXONE] | 0.24 mL/min/kg | 4 mL/min/kg | 4 mL/min/kg | 0.16 L/kg | 0.45 mL/min/kg | 0.18 L/kg | 0.11 L/kg | 0.24 L/kg |
| N[C@H](C(=O)O)[C@@H]1CC(Cl)=NO1 [ACIVICIN] | 0.78 mL/min/kg | 5.2 mL/min/kg | 1.3 mL/min/kg | 0.58 L/kg | 3.3 mL/min/kg | 0.65 L/kg | 0.56 L/kg | 0.5 L/kg |
| CO/N=C(\C(=O)N[C@@H]1C(=O)N2C(C(=O)[O-])=C(C[N+]34CCC(C(N)=O)(CC3)CC4)CS[C@H]12)c1nsc(N)n1 [CEFCLIDIN] | 1.5 mL/min/kg | 8.8 mL/min/kg | 3.6 mL/min/kg | 0.17 L/kg | 3.4 mL/min/kg | 0.22 L/kg | 0.28 L/kg | 0.23 L/kg |
| NCC1(CC(=O)O)CCCCC1 [GABAPENTIN] | 1.8 mL/min/kg | 9.5 mL/min/kg | 2.3 mL/min/kg | 0.82 L/kg | 2.6 mL/min/kg | 1.2 L/kg | 0.68 L/kg | 0.16 L/kg |
| NC(=O)c1cc[n+](COC[n+]2ccccc2/C=N/O)cc1 [HI-6] | 3.2 mL/min/kg | 9.8 mL/min/kg | 3.7 mL/min/kg | 0.39 L/kg | 8.6 mL/min/kg | 0.3 L/kg | 0.34 L/kg | 0.26 L/kg |
| O=C(OC1C[C@@H]2CC3C[C@@H](C1)N2CC3O)c1c[nH]c2ccccc12 (some centres not stated) | 22 mL/min/kg | 94 mL/min/kg | 27 mL/min/kg | 11 L/kg | 77 mL/min/kg | 15 L/kg | 28 L/kg | 9.6 L/kg |
| CCC1(C)CC(=O)NC1=O (configuration not stated) [ETHOSUXIMIDE] | 0.15 mL/min/kg | 3.1 mL/min/kg | 0.42 mL/min/kg | 0.63 L/kg | 0.33 mL/min/kg | 0.68 L/kg | 0.82 L/kg | 0.59 L/kg |
| O=P(O)(O)C(Sc1ccc(Cl)cc1)P(=O)(O)O [TILUDRONIC ACID] | 0.3 mL/min/kg | 3.3 mL/min/kg | 0.5 mL/min/kg | 1 L/kg | 0.83 mL/min/kg | 15 L/kg | 7 L/kg | 3 L/kg |
| O=[N+]([O-])O[C@@H]1CO[C@H]2[C@@H]1OC[C@@H]2O [ISOSORBIDE MONONITRATE] | 1.7 mL/min/kg | 2.5 mL/min/kg | 6.9 mL/min/kg | 0.6 L/kg | 11 mL/min/kg | 0.97 L/kg | 0.5 L/kg | 0.8 L/kg |
| CC1=NC(=O)C(CCN(C(C)C)C(C)C)(c2ccccc2)C2CCCCN12 (configuration not stated) [ACTISOMIDE] | 6.8 mL/min/kg | 9.8 mL/min/kg | 9 mL/min/kg | 0.58 L/kg | 16.4 mL/min/kg | 1.1 L/kg | 1.6 L/kg | 1.1 L/kg |
| CO[C@@]1(NC(=O)C(C(=O)[O-])c2ccc(O)cc2)C(=O)N2C(C(=O)[O-])=C(CSc3nnnn3C)CO[C@@H]21.[Na+].[Na+] (some centres not stated) [MOXALACTAM DISODIUM] | 1.2 mL/min/kg | 9.4 mL/min/kg | 2.2 mL/min/kg | 0.27 L/kg | 2 mL/min/kg | 0.28 L/kg | 0.16 L/kg | 0.2 L/kg |
| C[C@@H]1[C@H](O)[C@@H](C)/C=C/C=C/C=C/C=C/C=C/C=C/C=C/[C@H](O[C@@H]2O[C@H](C)[C@@H](O)[C@H](N)[C@@H]2O)C[C@@H]2O[C@](O)(C[C@@H](O)C[C@@H](O)[C@H](O)CC[C@@H](O)C[C@@H](O)CC(=O)O[C@H]1C)C[C@H](O)[C@H]2C(=O)O [AMPHOTERICIN B] | 0.4 mL/min/kg | 2 mL/min/kg | 0.1 mL/min/kg | 4 L/kg | 0.1 mL/min/kg | 2.3 L/kg | 0.2 L/kg | 0.5 L/kg |
| CN(C)C(=O)CCSC(SCCC(=O)O)c1cccc(/C=C/c2ccc3ccc(Cl)cc3n2)c1 (configuration not stated) [MK-571] | 0.92 mL/min/kg | 37 mL/min/kg | 4 mL/min/kg | 0.09 L/kg | 1.9 mL/min/kg | 0.59 L/kg | 0.32 L/kg | 0.23 L/kg |
| CC1CCCC(C)N1CCCC(O)(c1ccccc1)c1ccccn1 (configuration not stated) [PIRMENOL] | 2.5 mL/min/kg | 23 mL/min/kg | 6 mL/min/kg | 1.3 L/kg | 5 mL/min/kg | 12 L/kg | 1.4 L/kg | 3.3 L/kg |
| C#C[C@]1(O)CC[C@H]2[C@@H]3CCc4cc(O)ccc4[C@H]3[C@@H](OC)C[C@@]21C [MOXESTROL] | 0.34 mL/min/kg | 52 mL/min/kg | 5.2 mL/min/kg | 0.24 L/kg | 3.2 mL/min/kg | 1.4 L/kg | 1.8 L/kg | 0.63 L/kg |
| CO/N=C(\C(=O)N[C@@H]1C(=O)N2C(C(=O)O)=C(CSc3nc(C)c(CC(=O)O)s3)CS[C@H]12)c1csc(N)n1 [CEFODIZIME] | 0.73 mL/min/kg | 1.1 mL/min/kg | 4.1 mL/min/kg | 0.15 L/kg | 1.2 mL/min/kg | 0.18 L/kg | 0.15 L/kg | 0.26 L/kg |
| CC#CCC(C)[C@H](O)/C=C/[C@@H]1[C@H]2C/C(=C/CCCC(=O)O)C[C@H]2C[C@H]1O (some centres not stated) [ILOPROST] | 17 mL/min/kg | 32 mL/min/kg | 67 mL/min/kg | 0.4 L/kg | 58 mL/min/kg | 0.8 L/kg | 0.9 L/kg | 0.9 L/kg |
| Cc1cc(O)c(C(=O)N[C@@H](C(=O)N[C@@H]2C(=O)N3C(C(=O)O)=C(CSc4nnnn4C)CS[C@H]23)c2ccc(O)cc2)cn1 [CEFPIRAMIDE] | 0.28 mL/min/kg | 9.5 mL/min/kg | 5.1 mL/min/kg | 0.11 L/kg | 0.52 mL/min/kg | 0.26 L/kg | 0.1 L/kg | 0.45 L/kg |
| c1ccc(C2(N3CCCCC3)CCCCC2)cc1 [PHENCYCLIDINE] | 4.9 mL/min/kg | 122 mL/min/kg | 50 mL/min/kg | 6.2 L/kg | 37 mL/min/kg | 23 L/kg | 7.3 L/kg | 17 L/kg |
| CCCC(CCC)C(=O)O [VALPROIC ACID] | 0.11 mL/min/kg | 4.2 mL/min/kg | 3 mL/min/kg | 0.15 L/kg | 4 mL/min/kg | 0.66 L/kg | 0.15 L/kg | 0.31 L/kg |
| CCOC(=O)C1(c2ccccc2)CCN(C)CC1 [MEPERIDINE] | 17 mL/min/kg | 253 mL/min/kg | 43 mL/min/kg | 4.4 L/kg | 1 mL/min/kg | 24 L/kg | 5.9 L/kg | 2.4 L/kg |
| COCCOC(=O)C1=C(C)NC(C)=C(C(=O)OC(C)C)C1c1cccc([N+](=O)[O-])c1 (configuration not stated) [NIMODIPINE] | 14 mL/min/kg | 56 mL/min/kg | 34 mL/min/kg | 0.9 L/kg | 33 mL/min/kg | 0.96 L/kg | 3.6 L/kg | 3.2 L/kg |
